Results reported in patent US10206904B2, “Licofelone derivatives and methods of use” (The Board of Regents of the University of Oklahoma, priority 2015, dated 2019).
Entries after “also recorded” stand apart in the source; their conditions may differ. Where two headings read alike, the source gives them in different places.

Details: for Major Organ Toxicity / Liver enzymes ALKP / Liver enzymes ALT / Liver enzymes AST / Liver enzymes LDH / Ulceration (Grade) Colon / Ulceration (Grade) Small Intestine / Ulceration (Grade) Stomach: 6 weeks, male C57 mice; for Liver enzymes ALKP / Liver enzymes ALT / Liver enzymes AST / Liver enzymes LDH: Mean ± SEM
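Also: gross examination of all organs at necropsy, with liver enzyme profile and GI ulceration assessed in collected tissues and blood.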

Description: Body weights and symptoms of toxicity were recorded twice weekly for 6 weeks. […] All organs were examined grossly for any abnormalities upon necropsy. Livers, kidney, stomach, intestinal tract, and blood were obtained from the animals and analyzed for Liver enzyme profile, GI ulceration, and levels of test agents.
All animals found dead will be necropsied to confirm that the most likely cause of death was due to intestinal ulcerations.

SMILES: CCCCCCC(Sc1nc(Cl)cc(Nc2cccc(C)c2C)n1)C(=O)O (stereo not shown) [YS-121, reference compound]
- Major Organ Toxicity (25 ppm in diet): None
- Liver enzymes ALKP (25 ppm in diet): 183 ± 24 units/L
- Liver enzymes ALT (25 ppm in diet): 81 ± 11 units/L
- Liver enzymes AST (25 ppm in diet): 77 ± 8.6 units/L
- Liver enzymes LDH (25 ppm in diet): 388 ± 29 units/L
- Major Organ Toxicity (50 ppm in diet): None
- Liver enzymes ALKP (50 ppm in diet): 198 ± 33 units/L
- Liver enzymes ALT (50 ppm in diet): 96 ± 14 units/L
- Liver enzymes AST (50 ppm in diet): 90 ± 7.8 units/L
- Liver enzymes LDH (50 ppm in diet): 451 ± 38 units/L
- toxicity (75 ppm and above dose levels in diet, mice): significant toxicity
- Major Organ Toxicity (75 ppm in diet): Liver
- Liver enzymes ALKP (75 ppm in diet): 358 ± 47 units/L
- Liver enzymes ALT (75 ppm in diet): 147 ± 17 units/L
- Liver enzymes AST (75 ppm in diet): 118 ± 18 units/L
- Liver enzymes LDH (75 ppm in diet): 540 ± 51 units/L
- Major Organ Toxicity (100 ppm in diet): Liver*
- Ulceration (Grade) Colon (100 ppm in diet): Grade: 0, 1
- Ulceration (Grade) Small Intestine (100 ppm in diet): Grade: 1
- Ulceration (Grade) Stomach (100 ppm in diet): Grade: 2-3
- Liver enzymes ALKP (100 ppm in diet): 477 ± 51 units/L
- Liver enzymes ALT (100 ppm in diet): 194 ± 23 units/L
- Liver enzymes AST (100 ppm in diet): 169 ± 29 units/L
- Liver enzymes LDH (100 ppm in diet): 883 ± 68 units/L
- Major Organ Toxicity (200 ppm in diet): Liver**; also recorded: Stomach
- Ulceration (Grade) Colon (200 ppm in diet): Grade: 2
- Ulceration (Grade) Small Intestine (200 ppm in diet): Grade: 4
- Ulceration (Grade) Stomach (200 ppm in diet): Grade: 5
